Experimental data from patent US12521439B2, “Methods and materials for modulating Nrf2 pathway” (The General Hospital Corporation, priority 2019, dated 2026).

How the values were obtained:
[1] = Pharmacokinetics after single i.p. administration; assay type: in vivo, male Swiss Albino mice
Experimental: Pharmacokinetics studies: These studies were performed by SAI Lifesciences using Male Swiss Albino mice. OBT was resuspended in a solution formulation of 10% DMA, 10% EtOH, 10% PEG400 in 70% of (2-hydroxypropyl)-[…] (HPβCD). OBT was administered by intraperitoneal (i.p.) injection at 7.5 mg/kg. Blood samples were collected from mice, at 0, 0.08, 0.25, 0.5, 1, 2, 4, 8 and 24 hr. Immediately after blood collection, plasma was harvested by centrifugation and stored until analysis. After collection of blood, brain samples were collected from each mouse at 0.5, 4 and 24 h. Tissue samples were homogenized using ice-cold phosphate buffer saline (pH7.4) and homogenates were stored until analysis. Total homogenate volume was three times the tissue weight. Plasma samples were quantified by LC-MS/MS method (LLOQ=1.00 ng/mL) for plasma and brain.

ARE (Nrf2 pathway) = experiment: ARE-Gluc luciferase reporter (normalized to SV40-Vluc); assay type: cell-based, human
From the text: DNA expression constructs: ARE reporter was designed and generated based on our previously published reporter for monitoring of the transcription factor Nuclear Factor Kappa B (NFkB). NFkB TRE elements were removed and replaced with four copies of the ARE enhancer sequence. This reporter consists of a CSCW lentivirus vector in which we have introduced two copies of the 1.2 kb chicken beta-globin (HS4) insulator elements, a TATA box acting as a minimal promoter upstream of the secreted Gaussia luciferase (Gluc). pcDNA3-HA2-Keap1 (Addgene plasmid #21556) and pcDNA3-HA2-Keap1 delta BTB (Addgene plasmid #21593) were a gift from Yue Xiong^2. pHAGE DN Cullin 3 (DN-CUL3) was a gift from Stephen Elledge (Addgene plasmid #41913). Constructs expressing constitutively active Gluc, Firefly luciferase (Fluc) and Vargula luciferase (Vluc) were previously describe. MISSION shRNA Bacterial Glycerol Stocks for Keap1 as well as a non-target shRNA were obtained from Sigma. Transfection of plasmid DNA was performed using Lipofectamine 2000 (Invitrogen) as per manufacturer's guidelines. Lentivirus packaging and titration was performed in 293T cells by the MGH viral vector core facility following standard protocols. Keap1 mutant C151S plasmid was kindly provided by Dr. Wooyoung Hur.
Luciferase assay: Coelenterazine (20 μM; Nanolight), The Gluc substrate was added to a 25 μL aliquot of conditioned medium and photon counts were measured using a luminometer. Similarly, the secreted Vluc activity was measured by adding its substrate vargulin (5 ng/mL; Nanolight). Cells stably expressing Gluc under the ARE enhancer sequence and Vluc under the constitutively active SV40 minimal promoter were used to determine the ARE reporter activity. The normalized Gluc/Vluc ratio was used as a marker for ARE activation.

In the case of `COC1=CC(=O)C(O)=C/C1=C/C=C/c1ccccc1` [OBT, (Z)-2-hydroxy-5-methoxy-4-((E)-3-phenylallylidene)cyclohexa-2,5-dien-1-one], the “Vss relative to normal volume of total body water (0.7 L/kg)” value ([1]; 7.5 mg/kg i.p.) is reported as 3 fold, the systemic plasma clearance ([1]; 7.5 mg/kg i.p.) is reported as “high” and the “time up to which plasma concentrations were detected” value ([1]; 7.5 mg/kg i.p., LC-MS/MS) is reported as “up to 24 hrs”. The blood-brain barrier penetration ([1]; intact BBB) was “efficiently penetrates”, the Kp at 0.5 h ([1]; male, Swiss Albino, mouse, brain, ip, 7.5 mg/kg, 0.5 hr after single i.p. dose, read-out: brain-to-plasma ratio) was 0.27 and the Kp at 4 h ([1]; male, Swiss Albino, mouse, brain, ip, 7.5 mg/kg, 4 hrs after single i.p. dose, read-out: brain-to-plasma ratio) was 0.5. For the same molecule, the Tmax ([1]; male, Swiss Albino, mouse, ip, plasma, 7.5 mg/kg i.p.) was 30 min, the half-life ([1]; male, Swiss Albino, mouse, plasma, ip, 7.5 mg/kg i.p., read-out: terminal plasma half-life) was 24 min and the “OBT-induced ARE activation and loss of cell viability with thiol antioxidants” value (ARE (Nrf2 pathway); addition of NAC, DTT, GSH, U87) was “completely reversed”. The “OBT-induced ARE activation and loss of cell viability with Trolox” value (ARE (Nrf2 pathway); addition of Trolox, U87) was “only partially” and the “ARE luciferase reporter activity” value (ARE (Nrf2 pathway); sub-toxic doses, higher than positive control tBHQ, U87 and MDA-MB-231) was “strongly activated”.
